# According to the supplement of paper PMC11451515:
# System: SEM cells
# Experiment: cell viability relative to DMSO control; higher = less cytotoxic
# Details: 48 h
# In short: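 Before seeding, each leukemia line was adapted for at least four passages in each medium. NOMO1 or SEM cells (500 cells/well) and P12-Ichikawa cells (1000 cells/well) went into 1536-well plates at 5 μl, then received library compounds in DMSO by pin dosing across 11 threefold concentrations, 47 μM to 0.79 nM. Readout was CellTiter-Glo One luminescence after 48 h at 37°C, and viability is given as a per-plate percentage of DMSO wells, with cell-free wells as background.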
# [1] = HPLM + 10% dialyzed FBS, 0.000781 µM
# [2] = HPLM + 10% dialyzed FBS, 0.00234 µM
# [3] = HPLM + 10% dialyzed FBS, 0.00702 µM
# [4] = HPLM + 10% dialyzed FBS, 0.0211 µM
# [5] = HPLM + 10% dialyzed FBS, 0.0632 µM
# [6] = HPLM + 10% dialyzed FBS, 0.19 µM
# [7] = HPLM + 10% dialyzed FBS, 0.569 µM
# [8] = HPLM + 10% dialyzed FBS, 1.71 µM
# [9] = HPLM + 10% dialyzed FBS, 5.12 µM
# [10] = HPLM + 10% dialyzed FBS, 15.4 µM
# [11] = HPLM + 10% dialyzed FBS, 46.1 µM
# [12] = RPMI 5 mM glucose + 10% FBS, 0.000781 µM
# [13] = RPMI 5 mM glucose + 10% FBS, 0.00234 µM
# [14] = RPMI 5 mM glucose + 10% FBS, 0.00702 µM
# [15] = RPMI 5 mM glucose + 10% FBS, 0.0211 µM
# [16] = RPMI 5 mM glucose + 10% FBS, 0.0632 µM
# [17] = RPMI 5 mM glucose + 10% FBS, 0.19 µM
# [18] = RPMI 5 mM glucose + 10% FBS, 0.569 µM
# [19] = RPMI 5 mM glucose + 10% FBS, 1.71 µM
# [20] = RPMI 5 mM glucose + 10% FBS, 5.12 µM
# [21] = RPMI 5 mM glucose + 10% FBS, 15.4 µM
# [22] = RPMI 5 mM glucose + 10% FBS, 46.1 µM
# [23] = RPMI 5 mM glucose + 10% dialyzed FBS, 0.000781 µM
# [24] = RPMI 5 mM glucose + 10% dialyzed FBS, 0.00234 µM
# [25] = RPMI 5 mM glucose + 10% dialyzed FBS, 0.00702 µM
# [26] = RPMI 5 mM glucose + 10% dialyzed FBS, 0.0211 µM
# [27] = RPMI 5 mM glucose + 10% dialyzed FBS, 0.0632 µM
# [28] = RPMI 5 mM glucose + 10% dialyzed FBS, 0.19 µM
# [29] = RPMI 5 mM glucose + 10% dialyzed FBS, 0.569 µM
# [30] = RPMI 5 mM glucose + 10% dialyzed FBS, 1.71 µM
# [31] = RPMI 5 mM glucose + 10% dialyzed FBS, 5.12 µM
# [32] = RPMI 5 mM glucose + 10% dialyzed FBS, 15.4 µM
# [33] = RPMI 5 mM glucose + 10% dialyzed FBS, 46.1 µM
Compound,cell viability [1] [%],cell viability [2] [%],cell viability [3] [%],cell viability [4] [%],cell viability [5] [%],cell viability [6] [%],cell viability [7] [%],cell viability [8] [%],cell viability [9] [%],cell viability [10] [%],cell viability [11] [%],cell viability [12] [%],cell viability [13] [%],cell viability [14] [%],cell viability [15] [%],cell viability [16] [%],cell viability [17] [%],cell viability [18] [%],cell viability [19] [%],cell viability [20] [%],cell viability [21] [%],cell viability [22] [%],cell viability [23] [%],cell viability [24] [%],cell viability [25] [%],cell viability [26] [%],cell viability [27] [%],cell viability [28] [%],cell viability [29] [%],cell viability [30] [%],cell viability [31] [%],cell viability [32] [%],cell viability [33] [%]
O.O.CCN1CCN(C(=O)N[C@H](C(=O)N[C@H]2[C@@H]3SC\C(=C(/N3C2=O)C(O)=O)CSC4=NN=N[N]4C)C5=CC=C(O)C=C5)C(=O)C1=O,81,81.3,90.4,20.6,107,95.4,104,101,103,98.6,105,99.1,75.9,99.4,15.1,95.3,104,107,94.5,90.9,117,98.8,88.1,80.5,97.6,17.3,91.6,106,101,99.7,104,93.4,103
CC(C)[C@H](N)C(=O)OCCOC[N]1C=NC2=C1\N=C(N)/NC2=O,92.4,101,119,127,121,117,119,116,103,115,107,80.4,85.4,104,109,116,95.3,102,90.5,92.7,98.7,78,107,112,126,134,122,123,126,166,112,133,99
COC1=CC=C2/C3=N/CCN3\C(=N/C2=C1OC)NC(=O)C4=CC=CN=C4,98.5,98.2,106,96.8,101,104,96.7,103,87.1,82.5,64.1,91.6,94.4,99.7,89.5,99.5,79.4,85.2,99.6,76.6,80.6,55.7,122,111,111,103,117,113,99,92.9,84,81.1,69.2
OC(CN1CCN(c2cccc(Cl)c2)CC1)C(c1ccccc1)c1ccccc1 (stereo not given),99.1,97.9,102,101,104,110,92.1,10.6,8.66,7.09,7.14,101,95.2,106,107,111,32.4,24,6.74,8,8.3,7.07,111,95.2,104,103,105,38.2,42.9,7.36,8.19,8.02,7.53
COc1ncc(-c2ccc3c(Nc4cc(Oc5cc(F)cc(F)c5)cc(C(=O)O)c4)c([S+](=O)([O-])NC4CC4)cnc3c2)c(OC)n1,90.4,78.2,77.5,86,85.2,79.4,88.1,82.2,75.5,78,71.5,135,107,117,133,130,119,138,100,109,119,113,102,83.5,79.7,88.6,85,89.7,97.5,75.4,82.1,104,67.9
